We go through seven compounds from ChEMBL document CHEMBL1221226 (Nat Chem Biol, 2009).

One assay concerns the target Glucagon receptor (Homo sapiens, UniProt P47871). Description: Agonist activity at GCGR expressed in HEK293 cells assessed as stimulation of cAMP production by luciferase reporter gene assay. It counts as functional, cell-based.
The target in assay [1] is Glucagon-like peptide 1 receptor (Homo sapiens, UniProt P43220). Description: Agonist activity at GLP1R expressed in HEK293 cells assessed as stimulation of cAMP production by luciferase reporter gene assay. It is filed as functional, cell-based.
Sequence of Glucagon-like peptide 1 receptor (P43220 whole entry): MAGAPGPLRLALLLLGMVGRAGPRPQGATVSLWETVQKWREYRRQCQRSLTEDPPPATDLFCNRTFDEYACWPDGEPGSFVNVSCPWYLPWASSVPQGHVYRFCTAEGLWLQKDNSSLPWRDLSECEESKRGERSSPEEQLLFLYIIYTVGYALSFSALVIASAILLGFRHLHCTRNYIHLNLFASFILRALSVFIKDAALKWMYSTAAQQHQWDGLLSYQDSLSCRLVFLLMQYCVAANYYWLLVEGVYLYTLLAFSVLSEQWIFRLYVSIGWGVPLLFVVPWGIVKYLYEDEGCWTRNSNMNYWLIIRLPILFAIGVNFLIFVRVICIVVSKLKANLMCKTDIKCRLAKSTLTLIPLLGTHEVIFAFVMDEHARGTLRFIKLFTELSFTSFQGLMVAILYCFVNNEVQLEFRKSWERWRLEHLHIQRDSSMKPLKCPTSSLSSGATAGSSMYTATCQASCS

Sequence of Glucagon receptor (P47871 whole entry): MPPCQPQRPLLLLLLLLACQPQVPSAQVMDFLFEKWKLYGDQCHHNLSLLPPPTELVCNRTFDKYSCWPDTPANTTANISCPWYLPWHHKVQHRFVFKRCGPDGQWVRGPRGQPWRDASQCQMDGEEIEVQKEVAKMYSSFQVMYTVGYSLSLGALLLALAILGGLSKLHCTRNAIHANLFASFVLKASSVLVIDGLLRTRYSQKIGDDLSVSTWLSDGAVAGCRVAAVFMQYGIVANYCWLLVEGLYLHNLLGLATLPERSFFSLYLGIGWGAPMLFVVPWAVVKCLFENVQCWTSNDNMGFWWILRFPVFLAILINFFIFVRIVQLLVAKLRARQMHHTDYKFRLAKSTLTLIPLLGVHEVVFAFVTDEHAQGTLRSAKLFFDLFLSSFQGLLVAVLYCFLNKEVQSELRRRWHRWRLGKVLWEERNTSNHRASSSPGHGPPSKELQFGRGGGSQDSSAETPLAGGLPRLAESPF

`CSCC[C@H](NC(=O)[C@H](CC(C)C)NC(=O)[C@H](Cc1c[nH]c2ccccc12)NC(=O)[C@H](CCC(N)=O)NC(=O)[C@@H](NC(=O)[C@H](Cc1ccccc1)NC(=O)[C@H](CC(=O)O)NC(=O)[C@H](CCC(N)=O)NC(=O)[C@H](C)NC(=O)[C@H](CCCNC(=N)N)NC(=O)[C@H](CCCNC(=N)N)NC(=O)[C@H](CO)NC(=O)[C@H](CC(=O)O)NC(=O)[C@H](CC(C)C)NC(=O)[C@H](Cc1ccc(O)cc1)NC(=O)[C@H](CCCCN)NC(=O)[C@H](CO)NC(=O)[C@H](Cc1ccc(O)cc1)NC(=O)[C@H](CC(=O)O)NC(=O)[C@H](CO)NC(=O)[C@@H](NC(=O)[C@H](Cc1ccccc1)NC(=O)[C@@H](NC(=O)CNC(=O)[C@H](CCC(N)=O)NC(=O)[C@H](CO)N[C@@H](Cc1cnc[nH]1)C(=O)O)[C@@H](C)O)[C@@H](C)O)C(C)C)C(=O)N[C@@H](CC(N)=O)C(=O)N[C@H](C(N)=O)[C@@H](C)O`: the figures for the EC50 (on Glucagon receptor; in assay [1]) were 0.15 nM and 0.6 nM, respectively. As for `CSCC[C@H](NC(=O)[C@H](CC(C)C)NC(=O)[C@H](Cc1c[nH]c2ccccc12)NC(=O)[C@H](CCC(N)=O)NC(=O)[C@@H](NC(=O)[C@H](Cc1ccccc1)NC(=O)[C@H](CC(=O)O)NC(=O)[C@H](CCC(N)=O)NC(=O)[C@H](C)NC(=O)[C@H](CCCN=C(N)N)NC(=O)[C@H](CCCN=C(N)N)NC(=O)[C@H](CCC(=O)O)NC(=O)[C@H](CC(=O)O)NC(=O)[C@H](CC(C)C)NC(=O)[C@H](Cc1ccc(O)cc1)NC(=O)[C@H](CCCCN)NC(=O)[C@H](CO)NC(=O)[C@H](Cc1ccc(O)cc1)NC(=O)[C@H](CC(=O)O)NC(=O)[C@H](CO)NC(=O)[C@@H](NC(=O)[C@H](Cc1ccccc1)NC(=O)[C@@H](NC(=O)CNC(=O)[C@H](CCC(N)=O)NC(=O)[C@H](CO)N[C@@H](Cc1cnc[nH]1)C(=O)O)[C@@H](C)O)[C@@H](C)O)C(C)C)C(=O)N[C@@H](CC(N)=O)C(=O)N[C@H](C(N)=O)[C@@H](C)O`, the EC50 on Glucagon receptor was determined as 0.049 nM; in assay [1] it was 0.17 nM. As to `CSCC[C@H](NC(=O)[C@H](CC(C)C)NC(=O)[C@H](Cc1c[nH]c2ccccc12)NC(=O)[C@H](CCC(N)=O)NC(=O)[C@@H](NC(=O)[C@H](Cc1ccccc1)NC(=O)[C@H](CC(=O)O)NC(=O)[C@H](CCC(N)=O)NC(=O)[C@H](C)NC(=O)[C@H](CCCN=C(N)N)NC(=O)[C@H](CCCN=C(N)N)NC(=O)[C@H](CCC(=O)O)NC(=O)[C@H](CC(=O)O)NC(=O)[C@H](CC(C)C)NC(=O)[C@H](Cc1ccc(O)cc1)NC(=O)[C@H](CCCCN)NC(=O)[C@H](CO)NC(=O)[C@H](Cc1ccc(O)cc1)NC(=O)[C@H](CC(=O)O)NC(=O)[C@H](CO)NC(=O)[C@@H](NC(=O)[C@H](Cc1ccccc1)NC(=O)[C@@H](NC(=O)CNC(=O)[C@H](CCC(N)=O)NC(=O)[C@H](CO)N[C@@H](Cc1cnc[nH]1)C(=O)O)[C@@H](C)O)[C@@H](C)O)C(C)C)C(=O)N[C@@H](CC(N)=O)C(=O)N[C@H](C(=O)O)[C@@H](C)O`, the EC50 at Glucagon receptor was found to be 0.053 nM; in assay [1], 1.1 nM. As to `CSCC[C@H](NC(=O)[C@H](CC(C)C)NC(=O)[C@H](Cc1c[nH]c2ccccc12)NC(=O)[C@H](CCC(N)=O)NC(=O)[C@@H](NC(=O)[C@H](Cc1ccccc1)NC(=O)[C@H](CC(=O)O)NC(=O)[C@H](CCC(N)=O)NC(=O)[C@H](C)NC(=O)[C@H](CCCNC(=N)N)NC(=O)[C@H](CCCNC(=N)N)NC(=O)[C@H](Cc1c[nH]cn1)NC(=O)[C@H](CC(=O)O)NC(=O)[C@H](CC(C)C)NC(=O)[C@H](Cc1ccc(O)cc1)NC(=O)[C@H](CCCCN)NC(=O)[C@H](CO)NC(=O)[C@H](Cc1ccc(O)cc1)NC(=O)[C@H](CC(=O)O)NC(=O)[C@H](CO)NC(=O)[C@@H](NC(=O)[C@H](Cc1ccccc1)NC(=O)[C@@H](NC(=O)CNC(=O)[C@H](CCC(N)=O)NC(=O)[C@H](CO)N[C@@H](Cc1cnc[nH]1)C(=O)O)[C@@H](C)O)[C@@H](C)O)C(C)C)C(=O)N[C@@H](CC(N)=O)C(=O)N[C@H](C(N)=O)[C@@H](C)O`, the EC50 on Glucagon receptor worked out at 0.1 nM; in assay [1], 0.23 nM.

Take `CSCC[C@H](NC(=O)[C@H](CC(C)C)NC(=O)[C@H](Cc1c[nH]c2ccccc12)NC(=O)[C@H](CCC(N)=O)NC(=O)[C@@H](NC(=O)[C@H](Cc1ccccc1)NC(=O)[C@H](CC(=O)O)NC(=O)[C@H](CCC(N)=O)NC(=O)[C@H](C)NC(=O)[C@H](CCCN=C(N)N)NC(=O)[C@H](CCCN=C(N)N)NC(=O)[C@H](CCC(N)=O)NC(=O)[C@H](CC(=O)O)NC(=O)[C@H](CC(C)C)NC(=O)[C@H](Cc1ccc(O)cc1)NC(=O)[C@H](CCCCN)NC(=O)[C@H](CO)NC(=O)[C@H](Cc1ccc(O)cc1)NC(=O)[C@H](CC(=O)O)NC(=O)[C@H](CO)NC(=O)[C@@H](NC(=O)[C@H](Cc1ccccc1)NC(=O)[C@@H](NC(=O)CNC(=O)[C@H](CCC(N)=O)NC(=O)[C@H](CO)N[C@@H](Cc1cnc[nH]1)C(=O)O)[C@@H](C)O)[C@@H](C)O)C(C)C)C(=O)N[C@@H](CC(N)=O)C(=O)N[C@H](C(N)=O)[C@@H](C)O`: the EC50 in assay [1] was found to be 0.26 nM.

On to `CSCC[C@H](NC(=O)[C@H](CC(C)C)NC(=O)[C@H](Cc1c[nH]c2ccccc12)NC(=O)[C@H](CCC(N)=O)NC(=O)[C@@H](NC(=O)[C@H](Cc1ccccc1)NC(=O)[C@H](CC(=O)O)NC(=O)[C@H](CCC(N)=O)NC(=O)[C@H](C)NC(=O)[C@H](CCCNC(=N)N)NC(=O)[C@H](CCCNC(=N)N)NC(=O)C[C@H](CCC(=O)O)NC(=O)[C@H](CC(=O)O)NC(=O)[C@H](CC(C)C)NC(=O)[C@H](Cc1ccc(O)cc1)NC(=O)[C@H](CCCCN)NC(=O)[C@H](CO)NC(=O)[C@H](Cc1ccc(O)cc1)NC(=O)[C@H](CC(=O)O)NC(=O)[C@H](CO)NC(=O)[C@@H](NC(=O)[C@H](Cc1ccccc1)NC(=O)[C@@H](NC(=O)CNC(=O)[C@H](CCC(N)=O)NC(=O)[C@H](CO)N[C@@H](Cc1cnc[nH]1)C(=O)O)[C@@H](C)O)[C@@H](C)O)C(C)C)C(=O)N[C@@H](CC(N)=O)C(=O)N[C@H](C(N)=O)[C@@H](C)O`, for which the EC50 was 0.054 nM at Glucagon receptor and 0.13 nM in assay [1]. Regarding `CSCC[C@H](NC(=O)[C@H](CC(C)C)NC(=O)[C@H](Cc1c[nH]c2ccccc12)NC(=O)[C@H](CCC(N)=O)NC(=O)[C@@H](NC(=O)[C@H](Cc1ccccc1)NC(=O)[C@H](CC(=O)O)NC(=O)[C@H](CCC(N)=O)NC(=O)[C@H](C)NC(=O)[C@H](CCCNC(=N)N)NC(=O)[C@H](CCCNC(=N)N)NC(=O)[C@H](CCS(=O)(=O)O)NC(=O)[C@H](CC(=O)O)NC(=O)[C@H](CC(C)C)NC(=O)[C@H](Cc1ccc(O)cc1)NC(=O)[C@H](CCCCN)NC(=O)[C@H](CO)NC(=O)[C@H](Cc1ccc(O)cc1)NC(=O)[C@H](CC(=O)O)NC(=O)[C@H](CO)NC(=O)[C@@H](NC(=O)[C@H](Cc1ccccc1)NC(=O)[C@@H](NC(=O)CNC(=O)[C@H](CCC(N)=O)NC(=O)[C@H](CO)N[C@@H](Cc1cnc[nH]1)C(=O)O)[C@@H](C)O)[C@@H](C)O)C(C)C)C(=O)N[C@@H](CC(N)=O)C(=O)N[C@H](C(N)=O)[C@@H](C)O`, the EC50 is 0.1 nM at Glucagon receptor and 0.12 nM in assay [1].
